# Experimental data published in paper PMC3757949 (Nature medicine, 2012).
# Tests used:
# [1] = target: T1, GLP-1R (Homo sapiens, UniProt P43220); test: GLP-1R activation, CRE-luciferase reporter gene assay in HEK 293 cells; type: cell-based
# [2] = test system: DIO mice; test: Body weight in diet-induced obese; type: in vivo; conditions: DIO male mice
# [3] = test system: MCF-7 xenografts; test: Tumor growth in MCF-7 xenograft OVX nude mice; type: in vivo; conditions: for volume of harvested tumors / weight of harvested tumors: after 9 weeks of treatment, mean ± s.e.m.; for tumor incidence at day 68: conjugates 4,000 μg per kg body weight daily, estradiol as s.c. pellet
# [4] = test system: ERα and ERβ; type: cell-based, human
# [5] = Conjugate degradation analysis in human plasma; type: in vitro ADME; conditions: pH 7.4, 37 °C
# [6] = target: T1, GLP-1R; test: GLP-1R competitive binding
# T1 sequence (P43220 24-463, species assumed): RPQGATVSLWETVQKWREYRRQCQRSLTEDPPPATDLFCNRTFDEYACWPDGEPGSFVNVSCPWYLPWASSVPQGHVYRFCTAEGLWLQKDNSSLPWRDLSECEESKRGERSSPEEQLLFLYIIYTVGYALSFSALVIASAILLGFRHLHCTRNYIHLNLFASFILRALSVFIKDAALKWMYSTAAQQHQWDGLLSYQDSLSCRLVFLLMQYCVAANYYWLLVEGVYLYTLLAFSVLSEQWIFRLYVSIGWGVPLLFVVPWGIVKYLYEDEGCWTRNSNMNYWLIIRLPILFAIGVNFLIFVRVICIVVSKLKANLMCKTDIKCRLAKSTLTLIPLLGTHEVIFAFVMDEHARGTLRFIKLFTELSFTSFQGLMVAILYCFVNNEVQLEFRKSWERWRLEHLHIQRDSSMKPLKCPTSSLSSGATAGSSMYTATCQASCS
Compound,fold lower GLP-1R potency in presence of plasma ([1]; 20% human plasma versus no plasma),"body weight loss ([2]; 400 μg per kg body weight daily s.c., 14 d (Fig. 5d)) [%]",volume of harvested tumors [3],weight of harvested tumors [3] [mg],tumor incidence at day 68 [3] [%],"EC50 ([4]; read-out: EC50, intracellular estrogen activity (ERE-mediated transcriptional activity), mean ± s.d.) [pM]",GLP-1R biochemical signaling potency (EC50) compared to parent peptide [1],time to complete degradation with release of estrogen [5] [h],intracellular estrogen activity compared to estrone ([4]; cells do not express GLP-1R),"decrease in body weight ([2]; 400 μg per kg body weight daily s.c., 2 weeks) [%]","body weight at end of treatment ([2]; 400 μg per kg body weight daily s.c., 2 weeks, mean ± s.e.m.) [g]","body weight at start of treatment ([2]; 400 μg per kg body weight, mean ± s.e.m.) [g]",GLP-1R binding affinity (IC50) compared to parent peptide [6]
CCCCCCCCCCCCCCCC(=O)N[C@@H](CCC(=O)N[C@@H](CCC(=O)NCCCC[C@H](NC(=O)[C@H](CO)NC(=O)[C@@H]1CCCN1C(=O)[C@@H]1CCCN1C(=O)[C@@H]1CCCN1C(=O)[C@H](C)NC(=O)CNC(=O)[C@H](CO)NC(=O)[C@H](CO)NC(=O)[C@@H]1CCCN1C(=O)CNC(=O)CNC(=O)[C@H](CCCCN)NC(=O)[C@@H](NC(=O)[C@H](CC(C)C)NC(=O)[C@H](Cc1c[nH]c2ccccc12)NC(=O)[C@H](C)NC(=O)[C@@H](NC(=O)[C@H](Cc1ccccc1)NC(=O)[C@H](CCC(=O)O)NC(=O)[C@H](CCCCN)NC(=O)[C@H](C)NC(=O)[C@H](C)NC(=O)[C@H](CCC(N)=O)NC(=O)[C@H](CCC(=O)O)NC(=O)[C@H](CCC(=O)O)NC(=O)[C@H](CC(C)C)NC(=O)[C@H](Cc1ccc(O)cc1)NC(=O)[C@H](CO)NC(=O)[C@H](CO)NC(=O)[C@@H](NC(=O)[C@H](CC(=O)O)NC(=O)[C@H](CO)NC(=O)[C@@H](NC(=O)[C@H](Cc1ccccc1)NC(=O)[C@@H](NC(=O)CNC(=O)[C@H](CCC(=O)O)NC(=O)C(C)(C)NC(=O)[C@@H](N)Cc1c[nH]cn1)[C@@H](C)O)[C@@H](C)O)C(C)C)[C@@H](C)CC)C(C)C)C(N)=O)C(=O)O)C(=O)O [acylated GLP-1 analog],~ 400 fold,30.1,,,,,,,,,,,
"C[C@]12CC[C@@H]3c4ccc(O)cc4CC[C@H]3[C@@H]1CC[C@@H]2O [estradiol, 17β-estradiol, reference compound]",,,"1,461.2 ± 584.3 mm^3",779.7 ± 257.7,100,4 ± 1,,,,,,,
CC[C@H](C)[C@H](NC(=O)[C@H](Cc1ccccc1)NC(=O)[C@H](CCC(=O)O)NC(=O)[C@H](CCCCN)NC(=O)[C@H](C)NC(=O)[C@H](C)NC(=O)[C@H](CCC(N)=O)NC(=O)[C@H](CCC(=O)O)NC(=O)[C@H](CCC(=O)O)NC(=O)[C@H](CC(C)C)NC(=O)[C@H](Cc1ccc(O)cc1)NC(=O)[C@H](CO)NC(=O)[C@H](CO)NC(=O)[C@@H](NC(=O)[C@H](CC(=O)O)NC(=O)[C@H](CO)NC(=O)[C@@H](NC(=O)[C@H](Cc1ccccc1)NC(=O)[C@@H](NC(=O)CNC(=O)[C@H](CCC(=O)O)NC(=O)C(C)(C)NC(=O)[C@@H](N)Cc1c[nH]cn1)[C@@H](C)O)[C@@H](C)O)C(C)C)C(=O)N[C@@H](C)C(=O)N[C@@H](Cc1c[nH]c2ccccc12)C(=O)N[C@@H](CC(C)C)C(=O)N[C@H](C(=O)N[C@@H](CCCCN)C(=O)NCC(=O)NCC(=O)N1CCC[C@H]1C(=O)N[C@@H](CO)C(=O)N[C@@H](CO)C(=O)NCC(=O)N[C@@H](C)C(=O)N1CCC[C@H]1C(=O)N1CCC[C@H]1C(=O)N1CCC[C@H]1C(=O)N[C@@H](CO)C(=O)N[C@@H](CCCCNC(=O)CCC(=O)Oc1ccc2c(c1)CC[C@@H]1[C@@H]2CC[C@]2(C)C(=O)CC[C@@H]12)C(N)=O)C(C)C [labile GLP-1–estrogen conjugate],,,92.1 ± 23.8 mm^3,37.0 ± 9.0,100,,matched the parent peptides,≤ 6,comparable intracellular estrogen activity to estrone,7.5,50.0 ± 1.1,54.1 ± 0.9,matched the parent peptides
